PubChem BioAssay AID248 (DTP/NCI, 2004)
Values joined by “and” are separate entries in the source; they are usually repeats but may differ in a detail not shown here. Equal entries are not always repeated. Inconclusive results and toxic doses are left out.

Test system: L1210 leukemia ip in BDF1 mice, survival T/C
Assay: NCI In Vivo Anticancer Drug Screen. Data for tumor model L1210 Leukemia (intraperitoneal) in B6D2F1 (BDF1) mice
Settings: endpoint: mean survival time, higher = longer survival
Procedure, shortened: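 Transplanted-tumor mice were given test agent; controls received vehicle only. Survival readings from the two groups were divided (treated over control).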

[1] = dose: 50.0 mg/kg/injection, schedule: Q01DX001 (ip), vehicle: carboxymethylcellulose (CMC)
[2] = dose: 100.0 mg/kg/injection, schedule: Q01DX001 (ip), vehicle: carboxymethylcellulose (CMC)
[3] = dose: 200.0 mg/kg/injection, schedule: Q01DX001 (ip), vehicle: carboxymethylcellulose (CMC)
[4] = dose: 400.0 mg/kg/injection, schedule: Q01DX001 (ip), vehicle: carboxymethylcellulose (CMC)
[5] = dose: 50.0 mg/kg/injection, schedule: Q01DX001 (ip), vehicle: saline
[6] = dose: 100.0 mg/kg/injection, schedule: Q01DX001 (ip), vehicle: saline
[7] = dose: 100.0 mg/kg/injection, schedule: Q01DX009 (ip), vehicle: Klucel (hydroxypropylcellulose) (HPC)
[8] = dose: 100.0 mg/kg/injection, schedule: Q04DX003 (ip), vehicle: saline with Tween-80
[9] = dose: 200.0 mg/kg/injection, schedule: Q01DX009 (ip), vehicle: saline with Tween-80
[10] = dose: 200.0 mg/kg/injection, schedule: Q04DX003 (ip), vehicle: saline with Tween-80
[11] = dose: 400.0 mg/kg/injection, schedule: Q01DX009 (ip), vehicle: saline with Tween-80
[12] = dose: 400.0 mg/kg/injection, schedule: Q04DX003 (ip), vehicle: saline with Tween-80
[13] = dose: 100.0 mg/kg/injection, schedule: Q01DX001 (ip), vehicle: saline with Tween-80
[14] = dose: 200.0 mg/kg/injection, schedule: Q01DX001 (ip), vehicle: saline with Tween-80

`Cc1ccc(NN=Nc2ccccc2C#N)cc1` was tested, and the T/C (dose: 50.0 mg/kg/injection, schedule: Q01DX009 (ip), vehicle: saline) was 92 % of control, the T/C (dose: 100.0 mg/kg/injection, schedule: Q01DX009 (ip), vehicle: saline) was 92 % of control and the T/C (dose: 100.0 mg/kg/injection, schedule: Q04DX003 (ip), vehicle: acetone) was 110 % of control. For the same molecule, the T/C (dose: 200.0 mg/kg/injection, schedule: Q01DX009 (ip), vehicle: saline) was 88 % of control, the T/C (dose: 200.0 mg/kg/injection, schedule: Q04DX003 (ip), vehicle: acetone) was 100 % of control and the T/C (dose: 400.0 mg/kg/injection, schedule: Q04DX003 (ip), vehicle: acetone) was 103 % of control.

With `O=c1c(Cl)c(C(Cl)(Cl)Cl)[nH]c2c(Cl)cc(Cl)cc12` the T/C (dose: 6.25 mg/kg/injection, schedule: Q01DX009 (ip), vehicle: other) was 93 % of control and the T/C (dose: 12.5 mg/kg/injection, schedule: Q01DX009 (ip), vehicle: other) was 107 % of control.

`O=C(Nc1ccc(C(=O)Nc2cccc(C3=NCCN3)c2)cc1)Nc1ccc(C2=NCCN2)cc1` was tested, and the T/C (dose: 15.0 mg/kg/injection, schedule: Q01DX Z (ip), vehicle: saline) was 202 % of control, the T/C (dose: 30.0 mg/kg/injection, schedule: Q01DX Z (ip), vehicle: saline) was 183 % of control and the T/C (dose: 60.0 mg/kg/injection, schedule: Q01DX Z (ip), vehicle: saline) was 122 % of control. For the same molecule, the T/C (dose: 120.0 mg/kg/injection, schedule: Q01DX Z (ip), vehicle: saline) was 100 % of control.

With `O=C(NCCCCCCNC(=O)NS(=O)(=O)c1ccccc1)NS(=O)(=O)c1ccccc1` the T/C [1] was 119 % of control, the T/C [2] was 102 % of control and the T/C [3] was 107 % of control. For the same molecule, the T/C [4] was 105 % of control.

For `OCC1OC(n2cnc3cncnc32)C(O)C1O` (centres undefined), the T/C (dose: 1.9 mg/kg/injection, schedule: Q01DX015 (ip), vehicle: saline) was 108 % of control, the T/C (dose: 2.5 mg/kg/injection, schedule: Q01DX015 (ip), vehicle: saline) was 104 % of control and the T/C (dose: 2.8 mg/kg/injection, schedule: Q01DX015 (ip), vehicle: saline) was 151 % of control. For the same molecule, the T/C (dose: 4.3 mg/kg/injection, schedule: Q01DX015 (ip), vehicle: saline) was 110 % of control, the T/C (dose: 5.0 mg/kg/injection, schedule: Q01DX015 (ip), vehicle: saline) was 106 % of control and the T/C (dose: 6.5 mg/kg/injection, schedule: Q01DX015 (ip), vehicle: saline) was 108 % of control. The T/C (dose: 9.7 mg/kg/injection, schedule: Q01DX015 (ip), vehicle: saline) was 112 % of control, the T/C (dose: 10.0 mg/kg/injection, schedule: Q01DX015 (ip), vehicle: saline) was 118 % of control and the T/C (dose: 20.0 mg/kg/injection, schedule: Q01DX015 (ip), vehicle: saline) was 93 % of control. For the same molecule, the T/C [5] was 117 % of control and 122 % of control and the T/C [6] was 123 % of control.

With `O=[N+]([O-])c1ccc(O)c(/C=N/Nc2nnc(N/N=C/c3cc([N+](=O)[O-])ccc3O)c3ccccc23)c1` the T/C [1] was 95 % of control, the T/C [2] was 93 % of control and the T/C [3] was 95 % of control. For the same molecule, the T/C [4] was 93 % of control.

In the case of `COc1ccc(OC)c(N)c1`, the T/C (dose: 25.0 mg/kg/injection, schedule: Q01DX009 (ip), vehicle: Klucel (hydroxypropylcellulose) (HPC)) is reported as 88 % of control, the T/C (dose: 50.0 mg/kg/injection, schedule: Q01DX009 (ip), vehicle: Klucel (hydroxypropylcellulose) (HPC)) is reported as 93 % of control and the T/C [7] is reported as 93 % of control.

`COC(OC)c1cc(=O)n(C)c(=O)[nH]1` was tested, and the T/C [8] was 104 % of control, the T/C [9] was 93 % of control and the T/C [10] was 104 % of control. For the same molecule, the T/C [11] was 89 % of control and the T/C [12] was 100 % of control.

With `COc1ccc(C(C)=O)cc1N` the T/C [7] was 98 % of control, the T/C (dose: 100.0 mg/kg/injection, schedule: Q04DX003 (ip), vehicle: Klucel (hydroxypropylcellulose) (HPC)) was 94 % of control and the T/C (dose: 200.0 mg/kg/injection, schedule: Q01DX009 (ip), vehicle: Klucel (hydroxypropylcellulose) (HPC)) was 104 % of control. For the same molecule, the T/C (dose: 200.0 mg/kg/injection, schedule: Q04DX003 (ip), vehicle: Klucel (hydroxypropylcellulose) (HPC)) was 93 % of control, the T/C (dose: 400.0 mg/kg/injection, schedule: Q01DX009 (ip), vehicle: Klucel (hydroxypropylcellulose) (HPC)) was 116 % of control and the T/C (dose: 400.0 mg/kg/injection, schedule: Q04DX003 (ip), vehicle: Klucel (hydroxypropylcellulose) (HPC)) was 94 % of control.

For `C(=C\c1cccc2ccccc12)/c1ccncc1`, the T/C (dose: 75.0 mg/kg/injection, schedule: Q01DX001 (ip), vehicle: carboxymethylcellulose (CMC)) was 97 % of control, the T/C (dose: 150.0 mg/kg/injection, schedule: Q01DX001 (ip), vehicle: carboxymethylcellulose (CMC)) was 88 % of control and the T/C (dose: 300.0 mg/kg/injection, schedule: Q01DX001 (ip), vehicle: carboxymethylcellulose (CMC)) was 90 % of control.

For `CCNC(C)(C)C(SS)c1ccc(Br)cc1` (centres undefined), the T/C (dose: 6.25 mg/kg/injection, schedule: Q01DX009 (ip), vehicle: water) was 98 % of control, the T/C (dose: 12.5 mg/kg/injection, schedule: Q01DX009 (ip), vehicle: water) was 96 % of control and the T/C (dose: 25.0 mg/kg/injection, schedule: Q01DX009 (ip), vehicle: water) was 94 % of control. The T/C (dose: 50.0 mg/kg/injection, schedule: Q01DX009 (ip), vehicle: water) was 94 % of control and 91 % of control, the T/C (dose: 100.0 mg/kg/injection, schedule: Q01DX009 (ip), vehicle: water) was 101 % of control and the T/C (dose: 200.0 mg/kg/injection, schedule: Q01DX009 (ip), vehicle: water) was 93 % of control. For the same molecule, the T/C (dose: 400.0 mg/kg/injection, schedule: Q01DX009 (ip), vehicle: water) was 93 % of control.

With `CC(=O)/C(N=Nc1ccc(S(=O)(=O)c2ccc(N=N/C(C(C)=O)=C(/C)O)cc2)cc1)=C(\C)O` the T/C [8] was 100 % of control, the T/C [10] was 93 % of control and the T/C [12] was 96 % of control.

`CCCCn1c2ccccc2c2ccccc21` was tested, and the T/C (dose: 50.0 mg/kg/injection, schedule: Q04DX003 (ip), vehicle: saline with Tween-80) was 96 % of control, the T/C [8] was 96 % of control and the T/C [10] was 102 % of control.

`Clc1cccc(-c2nc3ccccc3c3ccccc23)c1` was tested, and the T/C (dose: 100.0 mg/kg/injection, schedule: Q01DX009 (ip), vehicle: saline with Tween-80) was 90 % of control, the T/C [9] was 100 % of control and the T/C [11] was 103 % of control.

With `COc1ccc(/C=C/C(=O)c2ccc3cc(OC)c(OC)cc3c2)cc1OC` the T/C (dose: 100.0 mg/kg/injection, schedule: Q04DX003 (ip), vehicle: saline) was 91 % of control, the T/C (dose: 200.0 mg/kg/injection, schedule: Q04DX003 (ip), vehicle: saline) was 89 % of control and the T/C (dose: 400.0 mg/kg/injection, schedule: Q04DX003 (ip), vehicle: saline) was 87 % of control.

`CC1CCC(C(C)C)/C(=N\O)C1` (centres undefined) was tested, and the T/C [13] was 93 % of control, the T/C [14] was 97 % of control and the T/C (dose: 400.0 mg/kg/injection, schedule: Q01DX001 (ip), vehicle: saline with Tween-80) was 93 % of control.

With `CC12NC(=O)NC(=O)N1CCS2` (centres undefined) the T/C [5] was 100 % of control, the T/C [6] was 106 % of control and the T/C (dose: 200.0 mg/kg/injection, schedule: Q01DX001 (ip), vehicle: saline) was 102 % of control. For the same molecule, the T/C (dose: 400.0 mg/kg/injection, schedule: Q01DX001 (ip), vehicle: saline) was 100 % of control.

In the case of `N=C(N)c1ccc(OCCCCOc2ccc(NC(=O)c3cccc(S(=O)(=O)F)c3)cc2)cc1`, the T/C (dose: 50.0 mg/kg/injection, schedule: Q01DX001 (ip), vehicle: saline with Tween-80) is reported as 98 % of control, the T/C [13] is reported as 95 % of control and the T/C [14] is reported as 97 % of control.

In the case of `CC12CC3CC(C)(C1)CC(SCCN)(C3)C2`, the T/C (dose: 100.0 mg/kg/injection, schedule: Q04DX002 (ip), vehicle: saline) is reported as 97 % of control and the T/C (dose: 200.0 mg/kg/injection, schedule: Q04DX002 (ip), vehicle: saline) is reported as 97 % of control.
